{"source": "patent US11779536B2", "about": "(Ocular Therapeutix, Inc., priority 2020, dated 2023)", "key": {"[1]": {"experiment": "Proof of concept PK study Example 3.2: cyclosporine tear fluid concentration and drug released from inserts", "format": "in vivo, beagle dogs", "conditions": "beagle, insert nominal dose 0.44 mg, over 32 days, assuming consistent daily release", "excerpt": "Inserts were removed at 32 days to determine the amount of remaining drug compared to the administered dose."}, "[2]": {"conditions": "beagle, insert nominal dose 0.7 mg, in 6 weeks"}, "[3]": {"conditions": "for Cyclosporine per insert Mean ± SD: initial 671±13 μg; for Cyclosporine per insert, OD: 0.67 mg insert (initial 671±13 μg), 9% 4a20K SG/trilysine"}}, "note": "“And” between values parts separate entries of the source, which are not always exact repeats. Identical values can stand only once. Like-named read-outs stand apart in the source and are kept apart here."}
{"smiles": "CC=CCC(C)C(O)C1C(=O)NC(CC)C(=O)N(C)CC(=O)N(C)C(CC(C)C)C(=O)NC(C(C)C)C(=O)N(C)C(CC(C)C)C(=O)NC(C)C(=O)NC(C)C(=O)N(C)C(CC(C)C)C(=O)N(C)C(CC(C)C)C(=O)N(C)C(C(C)C)C(=O)N1C", "note": "(centres unmarked) [cyclosporine, 30-ethyl-33-(1-hydroxy-2-methylhex-4-enyl)-1,4,7,10,12,15,19,25,28-nonamethyl-6,9,18,24-tetrakis(2-methylpropyl)-3,21-di(propan-2-yl)-1,4,7,10,13,16,19,22,25,28,31-undecazacyclotritriacontane-2,5,8,11,14,17,20,23,26,29,32-undecone]", "values": [{"measurement": "estimated daily delivered dose", "setting": "[1]", "value": 6.3, "unit": "µg/day"}, {"measurement": "average amount of cyclosporine released", "setting": "[2]", "value": 0.37, "unit": "mg"}, {"measurement": "Cyclosporine per insert Mean ± SD", "setting": "[3]; amount left in inserts removed from beagles at day 28, all eyes", "value": "576 ± 18", "unit": "µg"}, {"measurement": "Cyclosporine per insert Mean ± SD", "setting": "[3]; amount left in inserts removed from beagles at day 50, all eyes", "value": "494 ± 32", "unit": "µg"}, {"measurement": "Cyclosporine per insert, OD", "setting": "[3]; amount left in single insert removed from beagle right eye at day 28", "value": 596, "unit": "µg"}, {"measurement": "Cyclosporine per insert, OD", "setting": "[3]; amount left in single insert removed from beagle right eye at day 50", "value": "520 µg and 521 µg and 451 µg"}, {"measurement": "released amount", "setting": "[3]; beagle, initial dose 671±13 μg, 28 days", "value": 3.4, "unit": "µg"}, {"measurement": "released amount", "setting": "[3]; beagle, initial dose 671±13 μg, 50 days", "value": 3.5, "unit": "µg"}, {"measurement": "amount of cyclosporine left in the removed insert", "setting": "[3]; beagle, initial dose 671±13 μg, inserts removed at 28 days", "value": "576 ± 18", "unit": "µg"}, {"measurement": "amount of cyclosporine left in the removed insert", "setting": "[3]; beagle, initial dose 671±13 μg, inserts removed at 50 days", "value": "494 ± 32", "unit": "µg"}, {"measurement": "daily estimated delivered dose", "setting": "[3]; beagle, initial dose 671±13 μg, over 28 and 50 days", "value": "approximately 3.5 μg/day"}]}
